Measurements published in US20130108610A1 (priority 2011, published 2013).

Assays:
[1] = target: T1, aconitase (Saccharomyces cerevisiae, UniProt P19414); assay: Aconitase activity in lysates of treated Saccharomyces cerevisiae BY4741 cultures (Bioxytech Aconitase-340 kit); type: cell-based; settings: for Aconitase Activity, % of Untreated Control: S. cerevisiae BY4741 in YPD, incubated overnight, cell lysate, negative activity reported as 0; for Aconitase inhibition (in words): culturing of cells in the presence of the material, effective = inhibition by 70% or more
T1 construct: endogenous in cells; host or cells: Saccharomyces cerevisiae strain BY4741
Experimental: Cultures of Saccharomyces cerevisiae strain BY4741 are grown in YPD (20 grams glucose, 20 grams peptone, 10 grams yeast extract per liter) broth overnight at 30°. The cultures are diluted with YPD to a total volume of 100 mls with an optical density (600 nm) of 0.1. The cultures are incubated with shaking until reaching an optical density of 0.2, whereupon the test material is added. The cultures are incubated overnight, and the cells are pelleted by centrifugation. The cell pellet is washed with 100 mM NaCl, 20 mM Tris pH 7.4 and resuspended in 5 ml of 100 mM NaCl, 20 mM Tris pH 7.4. Glass beads (0.5 mm) is added. The sample is alternately vortexed for one minute and incubated on ice for one minute, with a total of ten treatments. After centrifugation, the supernatant is collected. In a 96-well plate (UV-transparent Corning 3679 plate), 30 μl of cell lysate is mixed with 20 μl 100 mM NaCl, 20 mM Tris pH 7.4 and assayed using a Bioxytech Aconitase-340 kit (OxisResearch) according to instructions.
For the aconitase assay, samples are incubated for six minutes at 37°. The reaction rate is calculated based on the increase in optical density (340 nm) in the five-minute interval beginning one minute after the reaction started. The aconitase activity in lysates of treated samples is divided by the aconitase activity in lysates of untreated samples. If replicates were performed on samples, the reported data are a mean of the aconitase activity measurements of individual lysates of treated cells divided by the mean of the aconitase activity measurements of individual lysates of untreated cells. If the aconitase activity appears to be negative in lysates of treated cells, the value “0” is reported for aconitase activity (Table 1).

[2] = system: Saccharomyces; settings: minimal medium; by inhibition of glutamate and lysine synthesis

T1 sequence (P19414 17-778): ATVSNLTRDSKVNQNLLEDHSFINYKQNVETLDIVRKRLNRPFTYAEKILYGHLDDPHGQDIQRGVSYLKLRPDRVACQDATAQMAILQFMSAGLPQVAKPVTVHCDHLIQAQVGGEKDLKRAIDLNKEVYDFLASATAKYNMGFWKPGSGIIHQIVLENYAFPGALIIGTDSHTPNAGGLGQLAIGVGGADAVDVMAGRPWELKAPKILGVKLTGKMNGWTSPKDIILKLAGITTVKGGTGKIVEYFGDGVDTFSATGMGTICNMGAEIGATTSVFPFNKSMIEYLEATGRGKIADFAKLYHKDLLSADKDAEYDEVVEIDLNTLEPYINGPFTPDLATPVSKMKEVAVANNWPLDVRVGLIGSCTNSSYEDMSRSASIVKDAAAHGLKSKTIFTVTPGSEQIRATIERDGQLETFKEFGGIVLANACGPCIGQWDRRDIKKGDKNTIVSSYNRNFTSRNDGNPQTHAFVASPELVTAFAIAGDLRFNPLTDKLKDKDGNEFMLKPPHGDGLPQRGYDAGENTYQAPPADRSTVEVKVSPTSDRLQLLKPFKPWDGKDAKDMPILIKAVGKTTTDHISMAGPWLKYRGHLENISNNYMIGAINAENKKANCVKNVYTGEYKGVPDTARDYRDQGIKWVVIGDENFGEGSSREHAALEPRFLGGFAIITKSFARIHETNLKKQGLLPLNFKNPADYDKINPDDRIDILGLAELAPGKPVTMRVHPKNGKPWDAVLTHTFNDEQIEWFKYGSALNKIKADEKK

Row | Compound | Aconitase Activity, % of Untreated Control ([1]; 50 ppm test material) [%] | also measured
1 | On1ccccc1=S.On1ccccc1=S.[Cu] [Copper Pyrithione (CuPT), Copper Pyrithione] |  | Aconitase Activity, % of Untreated Control ([1]; 5 ppm test material): 0%
2 | c1cnc2c(c1)ccc1cccnc12 [1,10-Phenanthroline] | 2 | 
3 | CCCCCCCCOc1cccc(=O)n1O.NCCO [N-Hydroxy-6-octyloxypyridine-2(1H)one, ethanolamine salt] | 0 | 
4 | Cc1cc(CC(C)CC(C)(C)C)n(O)c(=O)c1.NCCO (centres unmarked) [Piroctone Diamine (Octopirox), Piroctone Diamine] | 0 | 
5 | Oc1cccc2cccnc12 [8-Hydroxyquinoline] | 15 | 
6 | [O-]n1ccccc1=S.[O-]n1ccccc1=S.[Zn+2] [Zinc pyrithione (ZPT), zinc salt of 1-hydroxy-2-pyridinethione] |  | Growth inhibition (in words) [2]: inhibits growth; Aconitase Activity, % of Untreated Control ([1]; 5 ppm test material): 0%; Aconitase inhibition (in words) [1]: aconitase inhibition
7 | O=C(O)CN(CCN(CC(=O)O)CC(=O)O)CC(=O)O [EDTA] | 36 | Aconitase inhibition (in words) [1]: not effective
8 | O=S(=O)([O-])[O-].[Zn+2] [Zinc Sulfate] | 110 | 
